The values that follow come from paper PMC12670405, “Second-Generation AURKA-Targeting PROTACs: Structural Optimization toward in Vivo Degradation in Neuroblastoma” (Journal of Medicinal Chemistry, 2025).

Molecules are shown by their SMILES.

In test [1] the target is T1, AURKA (Homo sapiens, UniProt O14965).
T1 sequence (O14965 1-403): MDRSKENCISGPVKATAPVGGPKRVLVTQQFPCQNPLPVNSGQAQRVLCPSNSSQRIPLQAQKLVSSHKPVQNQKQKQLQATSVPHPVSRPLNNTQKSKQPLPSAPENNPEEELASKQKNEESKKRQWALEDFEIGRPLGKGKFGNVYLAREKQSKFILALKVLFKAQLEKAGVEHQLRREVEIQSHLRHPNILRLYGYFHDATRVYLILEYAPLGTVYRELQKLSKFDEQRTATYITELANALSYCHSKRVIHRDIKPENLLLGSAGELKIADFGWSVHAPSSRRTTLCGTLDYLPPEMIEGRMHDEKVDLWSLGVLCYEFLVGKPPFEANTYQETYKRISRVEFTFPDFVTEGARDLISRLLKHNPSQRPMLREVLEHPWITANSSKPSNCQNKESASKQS
The test can be described thus: AURKA protein levels, Western blot in SH-SY5Y with ABCB1 knockdown. Further details: endogenous in cells. The settings on record: 1 μM, 24h. The class given is cell-based.

The subject of test [2] is JRKL. The test can be described thus: LC-MS/MS proteome profiling. Further details: key to Significant (3h SK5527vs3h DMSO) FDR0 05 / Significant (24h SK5527vs24h DMSO) FDR0 05: +: Statistical significance for differential regulation was set to a false discovery rate (FDR) of < 0.05 and |log2FC| = 2. The class given is cell-based, Homo sapiens. The procedure:
(§1) IMR-32 cells were seeded in T-25 flasks at a density of 1.7 million cells/flask and treated the next day with DMSO (negative control), SK5527 (500 nM) or MK-5108 (500 nM) for 3 or 24 h (data for MK-5108 not discussed in this manuscript). Cell pellets were harvested at the respective time points, lysed, and the concentration of the obtained protein lysates measured as previously described. Details on further sample preparation, LC–MS/MS, and data analysis can be found in the Supporting Information. The LC–MS/MS proteomics data have been deposited to the ProteomeXchange Consortium via the PRIDE partner repository with the data set identifier PXD061539.
(§2) Supplementary Methods 1 – LC-MS/MS proteomics
(§3) From each sample, 100 µg of protein was isolated, the volumes were equalized with water and SDS and TEAB were added to a final concentration of 5% and 50 mM, respectively. Proteins were reduced and alkylated by addition of 10 mM Tris(2-carboxyethyl)phosphine hydrochloride and 40 mM chloroacetamide and incubation for 30 minutes at 25°C in the dark. Phosphoric acid was added to a final concentration of 1.2%, and samples were subsequently diluted 7-fold with binding buffer containing 90% methanol in 100 mM TEAB, pH 7.55. The samples were loaded on the 96-well S-Trap™ plate (Protifi), placed on top of a deepwell plate, and centrifuged for 2 min at 1,500 x g at RT. After protein binding, the S-trap™ plate was washed three times by adding 200 µl binding buffer and centrifugation for 2 min at 1,500 x g at RT. A new deepwell receiver plate was placed below the 96-well S-Trap™ plate and 50 mM TEAB containing trypsin (1/100, w/w) was added for digestion overnight at 37°C.
Using centrifugation for 2 min at 1,500 x g, peptides were eluted in three steps, first with 80 µl 50 mM TEAB, then with 80 µl 0.2% formic acid (FA) in water and finally with 80 µl 0.2% FA in water/acetonitrile (ACN) (50/50, v/v). Eluted peptides were dried completely by vacuum centrifugation.
Peptides were re-dissolved in 20 µl loading solvent A (0.1% trifluoroacetic acid in water/acetonitrile (ACN) (99.5:0.5, v/v)) of which 2 µl of sample was injected for LC-MS/MS analysis on an Ultimate 3000 ProFlow nanoLC system in-line connected to a Orbitrap Exploris 240 mass spectrometer (Thermo) equipped with pneu-Nimbus dual ion source (Phoenix S&T). Trapping was performed at 20 μl/min for 2 min in loading solvent A on a PepMap™ Neo Trap column (Thermo scientific, 300 μm internal diameter (I.D.), 5 μm beads). The peptides were separated on a 250 mm Odyssey Ultimate, 1.7µm C18, 75 µm inner diameter (Ionopticks) kept at a constant temperature of 45°C. Peptides were eluted by a gradient reaching 26,4 % MS solvent B (0.1% FA in acetonitrile) after 80 min, 44% MS solvent B at 95 min, 56% MS solvent B at 100min followed by a 5-minutes wash at 56% MS solvent B and re-equilibration with MS solvent A (0.1% FA in water). The flow rate was set to 250 nl/min. The mass spectrometer was operated in data-independent mode, automatically switching between MS and MS/MS acquisition. Full-scan MS spectra ranging from 375-1500 m/z with a normalized target value of 300%, a maximum fill time of 25 ms and a resolution at of 60,000 were followed by 30 quadrupole isolations with a precursor isolation width of 10 m/z for HCD fragmentation at an NCE of 30% after filling the trap at a normalized target value of 2000% for maximum injection time of 45 ms. MS2 spectra were acquired at a resolution of 15,000 with a scan range of 200-1800 m/z in the Orbitrap analyser without multiplexing. The isolation intervals were set from 400 – 900 m/z with a width of 10 m/z using window placement optimization. The polydimethylcyclosiloxane background ion at 445.120028 Da was used for internal calibration (lock mass) and QCloud has been used to control instrument longitudinal performance during the project.
Analysis of the mass spectrometry data was performed in DiaNN (version 1.9). Precursor false discovery rate was […]
set at 1%. […]

Test [3] concerns the target T2, BMPR1B (Homo sapiens, UniProt O00238).
T2 construct: purchased Eurofins Discovery (DiscoverX KINOMEscan scanMAX)
The test can be described thus: KINOMEscan scanMAX. The settings on record: read-out: Percent Control. The class given is binding. The method, then:
(§4) The kinome-wide binding assay was performed by Eurofins Discovery using the scanMAX screening platform. More information can be found on the Eurofins Discovery Web site.

Test [4] deals with T3, ROCK2 (Homo sapiens, UniProt O75116).
T3 construct: purchased Eurofins Discovery (DiscoverX KINOMEscan scanMAX)
The test can be described thus: KINOMEscan scanMAX. The class given is binding. The settings on record: read-out: Percent Control. The method, then:
as §4

In test [5] the target is T4, CAMK1G (Homo sapiens, UniProt Q96NX5).
T4 construct: purchased Eurofins Discovery (DiscoverX KINOMEscan scanMAX)
Description: KINOMEscan scanMAX. It is filed as binding. Conditions: read-out: Percent Control. The method, then:
as §4

In test [6] the target is T5, AMPK-alpha2 (Homo sapiens, UniProt P54646).
T5 construct: purchased Eurofins Discovery (DiscoverX KINOMEscan scanMAX)
Description: KINOMEscan scanMAX. The class given is binding. Conditions: read-out: Percent Control. The method, then:
as §4

Test [7] has as its target T6, RIOK1 (Homo sapiens, UniProt Q9BRS2).
T6 construct: purchased Eurofins Discovery (DiscoverX KINOMEscan scanMAX)
The test can be described thus: KINOMEscan scanMAX. The settings on record: read-out: Percent Control. It is filed as binding. The procedure: as §4

Test [8] concerns IMR-32 proteome. The test can be described thus: LC-MS/MS proteome profiling. The class given is cell-based, Homo sapiens. The method, then: as §1, §2
as §3, with “After protein binding, the S-trap™ plate was washed three times by adding 200 µl binding buffer and centrifugation for 2 min at 1,500 x g at RT. A new deepwell receiver plate was placed below the 96-well S-Trap™ plate and 50 mM TEAB containing trypsin (1/100, w/w) was added for digestion overnight at 37°C.” left out

T6 sequence (Q9BRS2 whole entry): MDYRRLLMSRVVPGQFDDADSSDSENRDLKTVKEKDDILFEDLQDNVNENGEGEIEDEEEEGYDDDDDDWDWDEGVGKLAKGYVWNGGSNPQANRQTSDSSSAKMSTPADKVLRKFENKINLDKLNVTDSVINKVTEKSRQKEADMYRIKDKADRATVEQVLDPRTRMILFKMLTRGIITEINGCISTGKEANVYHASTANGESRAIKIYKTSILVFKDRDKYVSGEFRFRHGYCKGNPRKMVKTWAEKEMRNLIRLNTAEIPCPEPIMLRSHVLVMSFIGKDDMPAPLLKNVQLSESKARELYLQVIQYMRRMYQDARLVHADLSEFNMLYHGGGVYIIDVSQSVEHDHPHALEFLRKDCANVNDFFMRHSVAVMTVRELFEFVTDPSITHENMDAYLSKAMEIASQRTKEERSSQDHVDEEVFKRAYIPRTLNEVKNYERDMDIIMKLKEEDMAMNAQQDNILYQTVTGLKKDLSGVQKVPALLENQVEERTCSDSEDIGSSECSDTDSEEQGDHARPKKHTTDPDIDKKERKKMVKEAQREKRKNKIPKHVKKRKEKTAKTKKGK
T3 sequence (O75116 whole entry): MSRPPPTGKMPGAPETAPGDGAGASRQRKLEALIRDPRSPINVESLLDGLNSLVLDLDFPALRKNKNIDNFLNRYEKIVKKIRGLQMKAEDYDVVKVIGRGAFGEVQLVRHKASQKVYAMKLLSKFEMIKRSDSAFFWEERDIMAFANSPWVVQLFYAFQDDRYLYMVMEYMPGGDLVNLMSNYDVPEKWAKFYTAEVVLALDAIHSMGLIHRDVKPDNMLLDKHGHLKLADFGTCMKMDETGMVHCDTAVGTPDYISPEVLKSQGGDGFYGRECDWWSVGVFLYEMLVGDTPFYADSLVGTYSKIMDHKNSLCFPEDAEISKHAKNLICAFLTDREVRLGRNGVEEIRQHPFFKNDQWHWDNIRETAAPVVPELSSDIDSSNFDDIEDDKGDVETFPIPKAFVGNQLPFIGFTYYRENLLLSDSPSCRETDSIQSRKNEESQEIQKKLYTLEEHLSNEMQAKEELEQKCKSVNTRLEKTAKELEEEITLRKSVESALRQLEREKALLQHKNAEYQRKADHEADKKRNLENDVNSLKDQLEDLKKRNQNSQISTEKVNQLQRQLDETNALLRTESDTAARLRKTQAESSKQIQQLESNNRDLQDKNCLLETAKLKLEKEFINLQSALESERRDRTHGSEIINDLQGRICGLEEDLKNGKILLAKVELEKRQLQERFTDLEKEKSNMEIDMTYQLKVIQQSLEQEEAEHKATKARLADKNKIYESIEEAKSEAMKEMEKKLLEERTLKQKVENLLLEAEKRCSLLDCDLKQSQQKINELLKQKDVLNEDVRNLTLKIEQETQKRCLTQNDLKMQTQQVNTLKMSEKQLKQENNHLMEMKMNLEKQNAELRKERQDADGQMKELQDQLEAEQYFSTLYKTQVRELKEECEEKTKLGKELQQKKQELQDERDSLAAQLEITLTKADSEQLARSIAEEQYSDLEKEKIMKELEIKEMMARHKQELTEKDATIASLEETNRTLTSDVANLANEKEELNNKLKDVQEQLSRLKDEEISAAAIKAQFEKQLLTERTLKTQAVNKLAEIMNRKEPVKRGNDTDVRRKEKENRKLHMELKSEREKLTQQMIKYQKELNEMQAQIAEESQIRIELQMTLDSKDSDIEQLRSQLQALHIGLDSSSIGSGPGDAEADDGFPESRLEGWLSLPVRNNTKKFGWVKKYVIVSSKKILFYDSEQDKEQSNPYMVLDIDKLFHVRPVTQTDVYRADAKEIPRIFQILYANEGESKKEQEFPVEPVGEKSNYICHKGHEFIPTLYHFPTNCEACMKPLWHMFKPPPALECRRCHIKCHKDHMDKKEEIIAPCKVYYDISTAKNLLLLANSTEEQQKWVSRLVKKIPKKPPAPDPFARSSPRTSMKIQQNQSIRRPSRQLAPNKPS
T4 sequence (Q96NX5 whole entry): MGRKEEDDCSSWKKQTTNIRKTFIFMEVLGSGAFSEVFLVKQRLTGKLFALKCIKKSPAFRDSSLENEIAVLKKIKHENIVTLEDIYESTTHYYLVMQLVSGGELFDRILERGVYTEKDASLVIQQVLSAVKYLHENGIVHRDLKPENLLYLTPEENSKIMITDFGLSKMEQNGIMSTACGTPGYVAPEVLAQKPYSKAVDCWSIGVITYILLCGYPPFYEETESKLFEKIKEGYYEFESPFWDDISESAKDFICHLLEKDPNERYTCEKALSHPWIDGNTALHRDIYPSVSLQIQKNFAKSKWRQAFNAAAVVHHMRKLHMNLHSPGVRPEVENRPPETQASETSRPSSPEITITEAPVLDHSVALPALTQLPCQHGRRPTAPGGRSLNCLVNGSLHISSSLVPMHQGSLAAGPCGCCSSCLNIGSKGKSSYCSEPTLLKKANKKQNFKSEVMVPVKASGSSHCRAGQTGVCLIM
T2 sequence (O00238 14-502): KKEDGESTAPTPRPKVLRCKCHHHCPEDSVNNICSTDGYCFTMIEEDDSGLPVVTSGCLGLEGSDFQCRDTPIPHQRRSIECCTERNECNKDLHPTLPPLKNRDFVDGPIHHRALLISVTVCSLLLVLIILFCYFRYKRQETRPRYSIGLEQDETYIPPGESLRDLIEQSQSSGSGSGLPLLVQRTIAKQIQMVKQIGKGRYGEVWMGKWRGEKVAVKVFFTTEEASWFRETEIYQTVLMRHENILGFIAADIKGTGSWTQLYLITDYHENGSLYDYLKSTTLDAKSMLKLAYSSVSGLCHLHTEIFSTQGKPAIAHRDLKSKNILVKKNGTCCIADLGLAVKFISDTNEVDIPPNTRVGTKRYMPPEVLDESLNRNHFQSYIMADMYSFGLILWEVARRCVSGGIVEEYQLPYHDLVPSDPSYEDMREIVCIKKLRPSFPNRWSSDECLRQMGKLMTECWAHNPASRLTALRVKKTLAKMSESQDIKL
T5 sequence (P54646 whole entry): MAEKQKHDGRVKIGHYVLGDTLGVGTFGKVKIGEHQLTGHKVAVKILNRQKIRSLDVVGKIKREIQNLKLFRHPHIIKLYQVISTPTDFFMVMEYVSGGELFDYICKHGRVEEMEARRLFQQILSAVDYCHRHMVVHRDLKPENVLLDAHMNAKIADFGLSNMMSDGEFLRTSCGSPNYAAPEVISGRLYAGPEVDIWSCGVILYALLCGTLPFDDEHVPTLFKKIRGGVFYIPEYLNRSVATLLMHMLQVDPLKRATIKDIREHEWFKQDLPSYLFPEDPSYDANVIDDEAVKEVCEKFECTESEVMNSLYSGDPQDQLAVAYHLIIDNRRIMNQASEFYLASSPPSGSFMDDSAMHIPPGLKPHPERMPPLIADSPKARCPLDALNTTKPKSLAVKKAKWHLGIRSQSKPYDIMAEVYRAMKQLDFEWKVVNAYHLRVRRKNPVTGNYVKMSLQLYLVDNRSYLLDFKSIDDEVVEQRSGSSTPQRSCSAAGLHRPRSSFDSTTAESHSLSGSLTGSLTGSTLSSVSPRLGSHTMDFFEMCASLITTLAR

Turning to `O=C1CCC(N2C(=O)c3cccc(OCCOCCOCCOCCNC(=O)[C@]4(Cc5cccc(Nc6nccs6)n5)CC[C@@H](Oc5cccc(Cl)c5F)CC4)c3C2=O)C(=O)N1` (stereo partly shown) [SK2188, reference compound], the “AURKA degradation, ABCB1 knockdown compared to wild-type (in words)” value in test [1] was “stronger AURKA degradation”.

With `Cc1cc(Nc2ccc(F)c(CC3(C(=O)N4CCC(F)(CN5CCN(c6ccc(N7CCC(=O)NC7=O)cn6)CC5)CC4)CCN(Cc4cccc(Cl)c4F)CC3)n2)n[nH]1` [SK5527], in test [2] (IMR-32, 3h), the “Significant (3h SK5527vs3h DMSO) FDR0 05” value is given as “+”. For the same molecule, in test [2] (IMR-32, 3h), the “logFC (3h SK5527vs3h DMSO)” value stood at 5.38. Further, in test [2] (IMR-32, 24h), the “Significant (24h SK5527vs24h DMSO) FDR0 05” value is recorded as “+”. In addition, in test [2] (IMR-32, 24h), the “logFC (24h SK5527vs24h DMSO)” value worked out at 3.68. Besides, the “logFC JRKL” value is given as 5.38 in test [2] (SK5527 vs DMSO (3h)) and 3.68 in test [2] (SK5527 vs DMSO (24h)). For the same molecule, the remaining binding at 0.1 µM is 77% in test [3] (100 nM); 100% in test [4] (100 nM); 100% in test [5] (100 nM); 93% in test [6] (100 nM); 100% in test [7] (100 nM). Also, the remaining binding at 1 µM in test [3] (1000 nM) came to 72%; in test [4] (1000 nM), 45%; in test [5] (1000 nM), 92%; in test [6] (1000 nM), 100%; in test [7] (1000 nM), 100%. In addition, the “CRBN neosubstrates (GSPT1, CSNK1A1, ZFP91, SALL4, ZNF654, ZNF787, E4F1, PATZ1) (in words)” value in test [8] (IMR-32) is on record as “not significantly downregulated”. Further, in test [8] (IMR-32, 3h of treatment), the “degradation selectivity profile (in words)” value is on record as “AURKA as the only significantly downregulated protein”.
